Experimental findings from PubChem BioAssay AID1973 (The Scripps Research Institute Molecular Screening Center, 2009) are described below.

The structures appear in SMILES notation. Activity calls are given as the source filed them.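 The calls were made as follows: active = IC50 dose giving half inhibition of the KLF5 reporter of 10 micromolar or lower; inactive = IC50 above 10 micromolar.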

This experiment deals with DLD-1 KLF5 promoter-luciferase reporter, luminescence. Put plainly: KLF5 promoter reporter inhibitors, dose response, luminescence, DLD-1 cells, luciferase reporter (AID 1973).

In general, IC50 refers to the midpoint of a concentration-inhibition curve. Consider `Cc1ccc(C(=O)Nc2nc3ccccc3[nH]2)cc1`, for which the IC50 is 3530 nM.

Take `CNC1=C(N(C(C)=O)c2ccc(Br)cc2)C(=O)c2ccccc2C1=O`: the IC50 is 1860 nM. Take `COc1ccc(OC)c(N/C=C/C(=O)c2ccccc2)c1`: the IC50 was 1690 nM. Take `O=C(CN1C(=O)c2ccccc2S1(=O)=O)c1ccc(Cl)cc1Cl`: the half-inhibitory concentration (IC50) is 1690 nM. On to `COc1ccc(OC)c(Nc2cc(C)nc3nc(C)nn23)c1`, for which the concentration for half-maximal inhibition (IC50) was 486 nM. For `Nc1c(C(=O)Nc2cccc(C(=O)O)c2)sc2nc3c(cc12)CCCC3`, the concentration for half-maximal inhibition (IC50) is 1470 nM.

For `Cc1ccc2nc(NC(=O)CCCc3nc4ccccc4s3)sc2c1`, the half-maximal inhibitory concentration (IC50) is 207 nM. With `C[C@@H]1O[C@@H](O[C@H]2C[C@@H](O)[C@]3(CO)[C@H]4[C@H](O)C[C@]5(C)[C@@H](C6=CC(=O)OC6)CC[C@]5(O)[C@@H]4CC[C@]3(O)C2)[C@H](O)[C@H](O)[C@H]1O`, the IC50 was 165 nM. For `Cc1ccc(C(=O)O/N=C(\N)c2ccccn2)c(Cl)c1`, the IC50 was 2800 nM.

Consider `Clc1ccccc1/C=C/c1nc(-c2ccccn2)no1`, for which the IC50 was 1540 nM. For the compound `CC(C)(C)c1ccc(-c2noc(CCC(=O)NCC3CCCO3)n2)cc1` (stereo not drawn), the IC50 was 1810 nM. `O=C(NC1=NCCS1)C1COc2ccccc2O1` (stereo not drawn): the 50% inhibitory concentration (IC50) was 2630 nM.

With `C/C(=N\NC(=O)c1n[nH]c2c1CCC2)c1cccs1`, the IC50 was 2430 nM. In the case of `O=C(Nc1nc2cc3c(cc2s1)OCCO3)c1ccco1`, the IC50 was 1550 nM. To `COc1cccc(/C=N/Nc2ccc([N+](=O)[O-])cn2)c1O` belongs 4090 nM.

On to `Cc1ccc(C(=O)N/N=C/c2cc(Br)ccc2O)cn1`, for which the IC50 was 1910 nM.

Regarding `O=C(N/N=C/c1c(O)ccc2ccccc12)c1cccnc1`, the 50% inhibitory concentration (IC50) is 1620 nM.

With `COC(=O)c1ccc(Oc2cc(C)nc(-n3nc(C)cc3C)n2)cc1`, the IC50 is 520 nM. Take `Cc1cc(/C=N/Nc2nc(N)ncc2[N+](=O)[O-])c(C)n1-c1ccccc1F`: the IC50 was 401 nM. To `O=C(NCCc1ccccc1)c1ccc2c(c1)OCCO2` belongs 1060 nM; to `O=C(Nc1cccnc1)c1cccs1`, 950 nM; to `COc1ccc(Cl)cc1C(=O)Nc1nc2ccccc2[nH]1`, 4030 nM. With `O=C(NCCc1ccccc1)c1ccc2c(c1)OCCCO2`, the IC50 was 421 nM. To `O=C(N/N=C/c1cc(Cl)ccc1O)c1cccnc1` belongs 1630 nM; to `Cc1cc(C(=O)CN2C(=O)c3ccccc3S2(=O)=O)c(C)n1CC1CCCO1` (stereo not drawn), 267 nM; to `CC(C)CC(NC(=O)CCCNC(=O)CCC(=O)OC1O[C@H]2OC3(C)CC[C@H]4[C@H](C)CCC(C1C)C24OO3)C(=O)O` (stereo partly drawn), 502 nM. For the compound `CC1CCN(c2ccc(-c3cccs3)nn2)CC1`, the IC50 was 1260 nM. For the compound `COc1cc(/C=N/O)ccc1OCc1ccc(C(=O)O)cc1`, the IC50 is 820 nM.

As to `CC(C)Oc1ccc(C(=O)Nc2nc3ccccc3[nH]2)cc1`, the half-maximal inhibitory concentration (IC50) is 1650 nM. Take `CCNC(=S)NNC(=O)c1cc(-c2ccc(OCC)cc2)nc2ccccc12`: the IC50 was 4170 nM.

Take `CN(CCO)c1ccc(/C=N/Nc2nncc3ccccc23)cc1`: the IC50 is 1360 nM. To `CN(C)c1ccc(/C=N/Nc2cccc(C(=O)O)c2)cc1` belongs 617 nM.

Regarding `O=C(O)c1ccc(N/N=C/c2c[nH]c3ccccc23)cc1`, the half-maximal inhibitory concentration (IC50) is 1520 nM.

In the case of `COc1cccc(/C=N/NC(=O)c2cc3c(OC)ccc(OC)c3[nH]2)c1O`, the concentration for half-maximal inhibition (IC50) was 2460 nM. To `CCOc1cccc(/C=N/NC(=O)c2ccc3c(c2)OCCO3)c1O` belongs 1650 nM; to `Cc1ccc(C(=O)O/N=C(\N)c2ccccn2)c(C)c1`, 1420 nM; to `CCCS(=O)(=O)c1cnc(C2COc3ccccc3O2)nc1N` (stereo not drawn), 1400 nM. To `COc1cccc(/C=N/Nc2ncc(C(F)(F)F)cc2Cl)c1O` belongs 562 nM; to `Oc1cccc2ccc(Nc3ccccn3)nc12`, 2450 nM. On to `CCc1ccn2cc(-c3ccc4c(c3)OCO4)nc2c1`, for which the IC50 is 1900 nM. To `C[C@@H]1O[C@@H](O[C@H]2C[C@@H](O)[C@]3(CO)[C@H]4[C@H](O)C[C@]5(C)[C@@H](C6COC(=O)C6)CC[C@]5(O)[C@@H]4CC[C@]3(O)C2)[C@H](O)[C@H](O)[C@H]1O` (stereo partly drawn) belongs 3850 nM; to `Cc1ccc(S(=O)(=O)Nc2cc(Cl)c(O)c3ncccc23)cc1`, 1820 nM; to `COc1ccc(C(=O)Nc2nc3ccccc3s2)c(OC)c1`, 2340 nM. To `CCOC(=O)c1sc(NC(=O)c2cc3c(s2)CCC(C)C3)nc1C` (stereo not drawn) belongs 109 nM; to `COC(=O)c1nn(-c2ccc3c(c2)CCN3C(C)=O)cc1O`, 2040 nM; to `O=C(O)CSCC(=O)Nc1ccc(C2CCCCC2)cc1`, 1290 nM. Turning to `O=C(NCCc1ccccc1F)c1ccc2c(c1)OCCO2`, the half-maximal inhibitory concentration (IC50) is 424 nM. As to `N/C(=N\OCc1ccc([N+](=O)[O-])cc1)c1ccccn1`, the half-inhibitory concentration (IC50) was 1050 nM. To `CC(C)(C)c1ccc(-c2noc(CCC(N)=O)n2)cc1` belongs 133 nM; to `CCN(CC)S(=O)(=O)c1cc(OC)ccc1N=Nc1ccc(O)c2ncccc12`, 2030 nM; to `COc1ccc2[nH]c(C(=O)N/N=C/c3ccc(OC)c(O)c3)cc2c1`, 5120 nM.

For `O=C(Nc1cccc(C(=O)O)c1)Nc1ccc2c(c1)OCO2`, the half-inhibitory concentration (IC50) is 838 nM. With `O=C(Nc1nccs1)c1cc2c(s1)CCCCC2`, the half-maximal inhibitory concentration (IC50) was 2860 nM. For the compound `CN(C)c1ccc(Nc2nc(N)c3ccccc3n2)cc1`, the IC50 is 2520 nM. To `Cc1ccc2[nH]c(C(=O)N/N=C/c3ccccc3O)c(C)c2c1` belongs > 39800 nM (inactive). To `O=C(CSc1n[nH]c(-c2ccccn2)n1)Nc1ccc(Cl)cc1` belongs 4380 nM; to `Cc1ccccc1OCC(=O)Nc1cccc(C(=O)O)c1`, 1240 nM. To `CC(C)(C)c1ccc(-c2noc(CCC(=O)Nc3cccnc3)n2)cc1` belongs 104 nM; to `O=C(N/N=C/c1cc(Br)ccc1OC(=O)c1ccc(Br)cc1)c1ccncc1`, 1540 nM; to `O=C(c1cc(-c2ccccc2Cl)on1)N1CCCC1`, 3480 nM.

Take `Cc1ccc(C(=O)Nc2cnc3ccccc3c2)cc1`: the IC50 was 735 nM.

On to `COc1ccc2nc(SCC(=O)NC3CCCC3)c(C)cc2c1`, for which the IC50 was 1360 nM. In the case of `O=C(N/N=C/c1cc(O)ccc1Br)c1cccnc1`, the IC50 is 1710 nM. To `C#Cc1ccc([C@@H]2C=C(C(=O)N3CCN(Cc4ccccc4)CC3)O[C@H](OCCCCO)C2)cc1` belongs 2720 nM; to `O=C(Nc1ccc(N2CCCCC2)cc1)c1ccccn1`, 703 nM. Consider `COc1ccc(/C=N/NC(=O)CCn2c3ccccc3c3ccccc32)cc1O`, for which the IC50 is 1850 nM.

`COc1cc(N=Cc2c(O)[nH]c3ccccc23)cc(OC)c1OC`: the 50% inhibitory concentration (IC50) was 1030 nM. To `c1ccc(-c2noc(-c3ccc4ccccc4c3)n2)nc1` belongs 798 nM; to `CC(C)(C)c1ccc(C(=O)O/N=C(\N)c2ccccn2)cc1`, 270 nM; to `Oc1cccc(/C=N/Nc2ccc(Cl)nn2)c1O`, 1900 nM. To `Cc1cc(C(=O)COC(=O)c2ccccc2O)c(C)n1Cc1cccs1` belongs 563 nM; to `Cc1ccc(-c2nnc(SCC(=O)Nc3ccccc3F)o2)cc1`, 2500 nM; to `NS(=O)(=O)c1ccc(N=Nc2ccc(O)c3ncccc23)cc1`, 3180 nM. As for `O=C(O)c1cccc(COc2ccc3c(c2)CCC3)c1`, the half-inhibitory concentration (IC50) is 695 nM.

`COC(=O)c1c(N)sc(C(=O)NCCc2ccccc2)c1C`: the half-inhibitory concentration (IC50) is 1930 nM.

For the compound `COc1ccc(-n2ncc3c(N4CCCCC4)ncnc32)cc1`, the IC50 was 1360 nM.

Take `Cn1cccc1-c1cc(C(=O)N/N=C/c2cc(Br)ccc2O)[nH]n1`: the IC50 was 1500 nM. To `COc1cccc(/C=N/Nc2nccnc2Cl)c1O` belongs 2080 nM.

In the case of `CCN1C=CC(=C2C(=O)c3ccccc3C2=O)C=C1`, the IC50 is 950 nM.

On to `CCCc1ccc(C(=O)O/N=C(\N)c2ccccn2)cc1`, for which the 50% inhibitory concentration (IC50) is 107 nM. To `c1ccc(-c2ccc(-c3nc(-c4ccccn4)no3)cc2)cc1` belongs 360 nM; to `O=C1C(Nc2ccccc2)=C(N2CCCCC2)C(=O)c2ccccc21`, 13400 nM (inactive); to `COc1ccc(C(=O)N/N=C/c2cc(Br)ccc2O)cc1OC`, 1560 nM. To `Cc1ccc(C(=O)N/N=C/c2c(O)ccc3ccccc23)cn1` belongs 1490 nM; to `CCCCN=C[C@]12CCC(O)CC1(O)CCC1[C@@H]2CC[C@]2(C)[C@H](C3C=CC(=O)O3)CCC12O` (stereo partly drawn), 2020 nM. To `O=C(Nc1cccc(O)c1)c1cc(-c2ccc3c(c2)OCO3)on1` belongs 2060 nM.

For `COc1ccc(OC)c2[nH]c(C(=O)N/N=C/c3ccccc3O)cc12`, the half-inhibitory concentration (IC50) was 1670 nM. Consider `CN(C)c1ccc(/C=C/c2nc3ccccc3c(=O)[nH]2)cc1`, for which the half-maximal inhibitory concentration (IC50) is 1510 nM.

Take `O=C(N/N=C/c1cccc(Oc2ccccc2)c1)c1ccccc1F`: the IC50 is 1240 nM. As for `CN(C(=O)COC(=O)/C=C/c1cccc([N+](=O)[O-])c1)C1CCS(=O)(=O)C1` (stereo not drawn), the IC50 was 518 nM. To `COc1cccc(/C=N/Nc2ccc(C(=O)O)cc2)c1O` belongs 43.1 nM; to `O=C(N/N=C/c1c(O)ccc2ccccc12)c1ccc(Br)o1`, 1780 nM. To `CC(C)(C)C(=O)Nc1cc2nn(-c3ccccc3)nc2cc1Cl` belongs 98.8 nM; to `C[C@]12CCC3C(CCC4=CC(O)CC[C@@]43/C=N/O)C1(O)CCC2C1=CC(=O)OC1` (stereo partly drawn), 2200 nM. For `Cc1nc2ccccn2c1-c1csc(Nc2cccc(O)c2)n1`, the IC50 was 395 nM. In the case of `Nc1ccc(-c2nc3ccc(C(=O)O)cc3s2)cc1`, the half-inhibitory concentration (IC50) was 383 nM. As for `CCc1ccn2cc(-c3cc(-c4ccccc4)no3)nc2c1`, the concentration for half-maximal inhibition (IC50) was 660 nM. To `O=C(CCCc1ccccc1)c1ccc2c(c1)OCCO2` belongs 1240 nM. To `COC(=O)C1=C(CN2CCCc3ccccc32)NC(=O)NC1c1ccc(F)cc1` (stereo not drawn) belongs 3050 nM; to `CC(C)(C)c1ccc(C(=O)Nc2sc3c(c2C(=O)O)CCC3)cc1`, 1160 nM; to `COC(=O)c1ccc2nc(Nc3nc4ccc(F)cc4s3)sc2c1`, 6.98 nM. To `COc1ccc(OCc2cccc(C(=O)Nn3cc([N+](=O)[O-])cn3)c2)cc1` belongs 332 nM; to `CCc1ccc(C(=O)Nc2nc3ccccc3[nH]2)cc1`, 2830 nM.
